Marks after values point to notes of the source that are not given here.
Tests used:
[1] = system: knee osteoarthritis patients; settings: cited from earlier work
[2] = system: spontaneous-onset guinea pig model; settings: cited from earlier work
[3] = system: rats subjected to ovariectomy; settings: cited from earlier work
[4] = system: mice subjected to orchiectomy; settings: cited from earlier work
[5] = system: monkeys subjected to ovariectomy; settings: cited from earlier work
[6] = system: hip osteoarthritis; settings: systematic review of clinical results; cited from earlier work
[7] = system: rabbit model of meniscus damage; settings: cited from earlier work
[8] = system: rabbit model of anterior cruciate ligament transection; settings: cited from earlier work
[9] = system: cartilage cells acquired from knee osteoarthritis patients; settings: cited from earlier work
[10] = system: female patients diagnosed with primary osteoporosis; assay: Test Example 1: onset of knee osteoarthritis during once-weekly subdermal administration (5- vs 100-unit groups); format: in vivo, human; settings: for Frequency of onset (%) of knee osteoarthritis / Number of cases of onset of knee osteoarthritis: subdermal once per week
Experimental: (§1) Female patients diagnosed with primary osteoporosis on the basis of the diagnostic criteria of Non-Patent Document 42 were given intermittent subdermal administrations of 5 or 100 units of an acetate salt of human PTH (1-34), which was prepared using the method of Takai (Patent Documents 4 and 5, Non-Patent Document 43), once per week (accordingly, there was a 5-unit administration group and a 100-unit administration group). The measured activity of the acetate salt of human PTH (1-34) was 3300 units/mg in the present test example according to the article of Marcus et al. (Non-Patent Document 44).
An injectable formulation containing 5 or 100 units per vial of the acetate salt of human PTH (1-34) was dissolved into 1 mL of normal saline solution at the time of usage, and 1 mL/person was subdermally administered to the 5-unit and 100-unit groups. Two tablets of a calcium agent (containing 500 mg of precipitated calcium carbonate (200 mg of calcium) per tablet) were further administered orally once per day to the 5-unit and 100-unit groups.
(§2) During the course of administration, both groups were prohibited from concurrent usage of calcitonin formulations, activated vitamin D3 formulations, vitamin K formulations, ipriflavone formulations, formulations of salts of bisphosphonic acid, estrogen formulations, anabolic-hormone formulations, doctor-prescribed calcium formulations (excepting the aforedescribed calcium agent administered as two tablets per day), and other medicinal agents thought to exert an effect on bone metabolism.
(§3) The attending physicians evaluated knee osteoarthritis according to the diagnostic criteria of each medical treatment facility on the basis of, e.g., the chief complaints of the patient, such as knee-joint pain and knee pain.
The frequency of onset of knee osteoarthritis in the 5-unit administration group in the present test example was also compared to the natural frequency of onset. The value used for the natural frequency of onset resulted from dividing the 174,000 female arthritis patients of ages 70 through 74 throughout the country in the Japanese Nationwide Patient Survey (2005, edited by the Statistics and Information Department of the Minister's Secretariat of the Ministry of Health, Labour and Welfare, [published by] the Health and Welfare Statistics Association) by the population of 3,597,754 women of the same age throughout the country according to the Statistics Bureau of the Ministry of Internal Affairs and Communications.

[11] = system: mice; assay: Fatal toxicity after administration to mice; format: in vivo; settings: 3300 or 2000 units/kg (body weight), intravenous, intramuscular, subdermal, or oral routes
Excerpt: (§4) The aforedescribed PTH or PTH derivative has extremely low toxicity.

[12] = system: female patients diagnosed with primary osteoporosis; assay: Test Example 2: onset and exacerbation of knee osteoarthritis during once-weekly subdermal administration (placebo vs 200-unit group); format: in vivo, human
Experimental: Two tablets of a calcium agent (containing 500 mg of precipitated calcium carbonate (200 mg of calcium) per tablet) were further administered orally once per day to the placebo group and the 200-unit administration group.
as §2, §3

[13] = system: rats; assay: Fatal toxicity after administration to rats; format: in vivo; settings: 3300 or 2000 units/kg (body weight), intravenous, intramuscular, subdermal, or oral routes
Excerpt: as §4

[14] = system: adenyl cyclase from rat kidney; assay: Activity measurement according to the article of Marcus et al.; format: biochemical; settings: method of Marcus et al. (Non-Patent Document 44)
Experimental: [Non-Patent Document 44] Marcus, R et al. “Bioassay of parathyroid hormone in vitro with a stable preparation of adenyl cyclase from rat kidney” Endocrinology 85: 801-810, 1969. […]
as §1

[15] = system: rat model of osteoarthritis; settings: cited from earlier work
[16] = 5-unit administration group, 165 cases
[17] = listed as printed as 100-unit administration group, subdermal once per week

In the case of `O=P(O)(O)C(O)(Cc1cccnc1)P(=O)(O)O` [risedronate], the Medicinal effects ([1]; clinical tests on knee osteoarthritis patients) is given as “medicinal effects were not found” and the “Effect of limiting cartilage degeneration” value [2] is given as “found to have an effect of limiting cartilage degeneration”.

In the case of Estrogen, the “Activity for improving cartilage degeneration” value [3] is listed as “activity for improving cartilage degeneration”, the “Activity for improving cartilage degeneration” value [4] is listed as “activity for improving cartilage degeneration” and the “Activity for improving cartilage degeneration” value [5] is listed as “activity for improving cartilage degeneration”. For the same molecule, the “Effects of estrogen therapy” value [6] was “has not been found to have clear effects” and the “Risk of hip osteoarthritis” value [6] was “increase the risk of hip osteoarthritis”.

In the case of Hyaluronate, the “Efficacy as a medicine for limiting the progression of the disease” value ([1]; meta-analyses of clinical tests on knee osteoarthritis patients) is given as “in doubt”, the Accelerating healing [7] is given as “accelerating healing” and the “Activity for limiting disease progression” value [8] is given as “activity for limiting disease progression”. For the same molecule, the “Limiting apoptosis of cartilage cells” value [9] was “activity for limiting apoptosis of cartilage cells” and the “Limiting the production of enzymes that degrade the cartilage matrix” value [9] was “showed activity for limiting the production of enzymes that degrade the cartilage matrix”.

With human PTH (1-34) the “Frequency of onset (%) of knee osteoarthritis” value [10, 16] was 6.67%, the “Number of cases of onset of knee osteoarthritis” value [10, 16] was 11 and the “Frequency of onset of knee osteoarthritis, 5-unit group compared with natural frequency of onset” value ([10]; 5 units once per week, 6.67% vs natural 4.84%) was “statistically significant difference was not found”. The “Number of cases of onset of knee osteoarthritis” value ([10]; 100-unit administration group, 314 cases) was 4, the “Frequency of onset (%) of knee osteoarthritis” value ([10]; 100-unit administration group, 314 cases, p < 0.05 vs 5-unit group) was 1.27* % and the “Frequency of onset of knee osteoarthritis, 100-unit group compared with 5-unit group” value ([10]; 100 units once per week vs 5 units, p<0.05) was “significantly less than that in the 5-unit administration group”. The “Onset of knee osteoarthritis, 100-unit group compared with natural onset” value ([10]; 100 units once per week, natural frequency of onset 4.84%) was “significantly more limited onset of knee osteoarthritis than in the case of natural onset”, the Fatal toxicity [11] was “never observed” and the “Frequency of onset of knee osteoarthritis, 200-unit group compared with placebo group” value ([12]; 200 units once per week) was “less than that in the placebo group”. For the same molecule, the “Onset and exacerbation of knee osteoarthritis in osteoporosis patients” value ([12]; administration to osteoporosis patients) was “clearly and markedly limits the onset and exacerbation of knee osteoarthritis”, the “Exacerbation of knee osteoarthritis: Number of cases of exacerbation” value [12, 17] was 4 and the “Onset of knee osteoarthritis: Frequency of onset (%)” value [12, 17] was 5.4%. For the same molecule, the “Onset of knee osteoarthritis: Number of cases of onset” value [12, 17] was 15, the Fatal toxicity [13] was “never observed” and the Measured activity [14] was 3300 units/mg.

B1: parathyroid hormone (protein, UniProt P01270 32-115, looked up)
Parathyroid hormone: SVSEIQLMHNLGKHLNSMERVEWLRKKLQDVHNFVALGAPLAPRDAGSQRPRKKEDNVLVESHEKSLGEADKADVNVLTKAKSQ
modifications: Parathyroid hormone
In the case of B1, the Therapeutic effect [15] is listed as “a slight therapeutic effect”.

From patent US20130012440A1, “PREVENTIVE AND/OR THERAPEUTIC AND/OR AGGRAVATION SUPPRESSING AGENT FOR HUMAN ARTHRITIS DEFORMANS” (ASAHI KASEI PHARMA CORPORATION, priority 2009, published 2013)
